Experimental data as given in PubChem BioAssay (NCI).
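48-hour exposure; five concentrations; linearly interpolated endpoints. At the GI50, growth is halved. Definition used: TGI = concentration required for complete inhibition of growth.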

Legend:
Test in all cases: inhibition of tumour cell growth, NCI panel, 48 h
A549 NSCLC = system: A549 NSCLC
DU-145 prostate = system: DU-145 prostate
EKVX NSCLC = system: EKVX NSCLC
HS 578T breast = system: HS 578T breast
HT29 colon = system: HT29 colon
MALME-3M melanoma = system: MALME-3M melanoma
NCI/ADR-RES ovarian = system: NCI/ADR-RES ovarian
OVCAR-8 ovarian = system: OVCAR-8 ovarian
SK-MEL-5 melanoma = system: SK-MEL-5 melanoma
SNB-19 CNS = system: SNB-19 CNS

SMILES | GI50 (A549 NSCLC) | TGI (A549 NSCLC) | GI50 (DU-145 prostate) | TGI (DU-145 prostate) | GI50 (EKVX NSCLC) | TGI (EKVX NSCLC) | GI50 (HS 578T breast) | TGI (HS 578T breast) | GI50 (HT29 colon) | TGI (HT29 colon) | GI50 (MALME-3M melanoma) | TGI (MALME-3M melanoma) | GI50 (NCI/ADR-RES ovarian) | TGI (NCI/ADR-RES ovarian) | GI50 (OVCAR-8 ovarian) | TGI (OVCAR-8 ovarian) | GI50 (SK-MEL-5 melanoma) | TGI (SK-MEL-5 melanoma) | GI50 (SNB-19 CNS) | TGI (SNB-19 CNS)
CCn1c(SCc2ccc(C)cc2)nnc1-c1nn(-c2ccc(Cl)cc2Cl)c(-c2ccc(Cl)cc2)c1C | 2.82 µM | 11.3 µM | 3.3 µM | 13.8 µM | 2.88 µM | 13 µM | 3.3 µM | 18.4 µM | 1.11 µM | 10.6 µM | 2.15 µM | 8.88 µM | 3.54 µM | 14.6 µM | 2.12 µM | 10.7 µM | 1.4 µM | 2.74 µM | 2.3 µM | 13.3 µM
COc1cc(C(=O)c2cc(C)c3[nH]c4ccc(C)cc4c3c2C)cc(OC)c1OC | < 0.01 µM | > 100 µM | < 0.01 µM | – | < 0.01 µM | > 100 µM | < 0.01 µM | > 100 µM | < 0.01 µM | 1.62 µM | < 0.01 µM | > 100 µM | < 0.01 µM | > 32.9 µM | < 0.01 µM | > 100 µM | < 0.01 µM | < 0.0146 µM | < 0.01 µM | > 100 µM
O=C(O)C1C(Br)(c2ccccc2)C1(Br)c1ccccc1 (stereo not given) | – | > 100 µM | – | > 100 µM | – | > 100 µM | – | > 100 µM | – | 59 µM | – | > 100 µM | – | > 100 µM | – | 84.6 µM | – | 88.8 µM | – | > 100 µM
CN(C)C(=O)[C@H](O)[C@H](Cc1ccccc1)NC(=O)c1cc2cc(Cl)ccc2[nH]1 | 24 µM | > 93.3 µM | 33.3 µM | > 100 µM | 25.7 µM | > 100 µM | 27.5 µM | > 100 µM | 20.3 µM | 48.8 µM | 16.2 µM | 44.1 µM | 22.7 µM | > 100 µM | 28.8 µM | > 100 µM | 15.6 µM | 30.6 µM | 26.1 µM | > 100 µM
ClCC[N+]12CC[N+](CCCl)(CC1)C2 | – | > 100 µM | – | > 100 µM | – | > 100 µM | – | > 100 µM | – | > 100 µM | – | > 100 µM | – | > 100 µM | – | > 100 µM | – | > 100 µM | – | > 100 µM
O=c1c2ccccc2c(=O)c2c1[nH]c1c(-c3ccccc3)c(-c3ccccc3)c(=O)c12 | 2.07 µM | 6.6 µM | 2.71 µM | 9.44 µM | 3.2 µM | 11.8 µM | 5.67 µM | 31.1 µM | 4.29 µM | > 100 µM | 2.24 µM | 8.19 µM | 3.76 µM | 21.7 µM | 2.79 µM | 9.33 µM | 2.05 µM | 4.03 µM | 3.26 µM | 11.8 µM
Nc1ccn(C2CCC(CO)O2)c(=O)n1 (stereo not given) | > 1000 µM | > 1000 µM | – | > 1000 µM | > 1000 µM | > 1000 µM | – | > 1000 µM | > 1000 µM | > 1000 µM | > 1000 µM | > 1000 µM | – | > 1000 µM | – | > 1000 µM | > 1000 µM | > 1000 µM | > 1000 µM | > 1000 µM
O=C(CCC1OCCO1)Nc1cc(NCc2ccccc2)ccc1OCc1ccccc1 | – | > 100 µM | – | > 100 µM | – | 65.5 µM | – | > 100 µM | – | 96.6 µM | – | 62.7 µM | – | > 100 µM | – | 58.6 µM | – | 35.3 µM | – | > 100 µM
O=c1cccc(C#CC#CC2=CCCCC2)o1 | 10.1 µM | > 47.7 µM | 1.96 µM | 4.4 µM | 10.2 µM | 25.8 µM | 5.24 µM | 24.3 µM | 14 µM | > 100 µM | 7.34 µM | 13.8 µM | 6.99 µM | 20.4 µM | 2.21 µM | 6.32 µM | 3.3 µM | 8.89 µM | 12 µM | 32.6 µM
C/C(N=NC(=S)N(C)C)=C1\C=CC=CN1O | – | > 100 µM | – | > 100 µM | – | > 100 µM | – | > 100 µM | – | > 100 µM | – | > 67.2 µM | – | 21.1 µM | – | > 94.1 µM | – | > 100 µM | – | > 100 µM
CCCCON(OC(=O)c1ccc2ccc3cccc4ccc1c2c34)C(C)=O | 39.1 µM | > 100 µM | 31.1 µM | > 100 µM | 27.3 µM | > 100 µM | 18.8 µM | 66.6 µM | 25 µM | 74.9 µM | 18.3 µM | 37.5 µM | 21.9 µM | 60.7 µM | 28.9 µM | > 100 µM | 16.9 µM | 32.5 µM | 34.3 µM | > 100 µM
CC1=C[C@H]2c3c(c(O)c(O)c4oc(-c5ccccc5)cc(=O)c34)[C@H](c3cc(O)c(O)c4oc(-c5ccccc5)cc(=O)c34)[C@H]2C(C)(C)C1 | 0.29 µM | 13.8 µM | 0.408 µM | > 75 µM | 1.14 µM | 11.4 µM | 0.412 µM | 10.2 µM | 0.888 µM | > 75 µM | 1.57 µM | 7.76 µM | 3.55 µM | 25.3 µM | 0.68 µM | > 75 µM | 0.974 µM | 2.16 µM | 0.557 µM | 17 µM
